Six compounds from ChEMBL document CHEMBL1135239, “Imidazo[5,1-f]triazin-4(3H)-ones, a new class of potent PDE 5 inhibitors” (Bioorg Med Chem Lett, 2002) can be followed below.

One experiment deals with Phosphodiesterase 3 (Homo sapiens, UniProt Q14432+Q13370). Kind of experiment: Inhibition of Phosphodiesterase 3. Type of experiment: protein assay.
For another experiment, the target named is Phosphodiesterase 1 (Bos taurus, UniProt Q01061+P14100). Kind of experiment: Inhibition of Phosphodiesterase 1. It counts as protein assay.
In another experiment the target is Phosphodiesterase 4 (Homo sapiens, UniProt P27815+Q08499+Q07343+Q08493). Kind of experiment: Inhibition of Phosphodiesterase 4. It counts as protein assay.
For experiment [1], the target named is cGMP-specific 3',5'-cyclic phosphodiesterase (Homo sapiens, UniProt O76074).
A further experiment has as its system Oryctolagus cuniculus. Kind of experiment: In vivo minimal effective dose for inhibition of phosphodiesterase in conscious rabbit model by peroral administration. Type of experiment: functional. The settings on record: po, read-out: MED.

Consider `CCCc1nc(C)c2c(=O)[nH]c(-c3cc(S(=O)(=O)N4CCN(C)CC4)ccc3OCC)nn12`, for which the results for the IC50 on Phosphodiesterase 3 and against Phosphodiesterase 1 were greater than 500 nM and 300 nM, respectively.
With `CCCOc1ccc(S(=O)(=O)N2CCN(C)CC2)cc1-c1nc2c(ncn2CCC)c(=O)[nH]1`, the IC50 against Phosphodiesterase 3 and against Phosphodiesterase 4 was greater than 500 nM each time.
Consider `CCCc1nc(C)c2c(=O)[nH]c(-c3ccccc3OCC)nn12`, for which the concentration for half-maximal inhibition (IC50) in experiment [1] was 5 nM; on Phosphodiesterase 3, greater than 500 nM; against Phosphodiesterase 4, greater than 500 nM; at Phosphodiesterase 1 it was 300 nM.
Turning to `CCCOc1ccccc1-c1nc2c(ncn2CCC)c(=O)[nH]1`, the IC50 is 10 nM in experiment [1], greater than 500 nM on Phosphodiesterase 3 and greater than 500 nM against Phosphodiesterase 4.
In the case of `CCCc1nn(C)c2c(=O)[nH]c(-c3ccccc3OCC)nc12`, the IC50 in experiment [1] is 40 nM; at Phosphodiesterase 3 it was greater than 500 nM; against Phosphodiesterase 4, greater than 500 nM.
Take `CCCc1nc(C)c2c(O)nc(-c3cc(S(=O)(=O)N4CCN(CC)CC4)ccc3OCC)nn12.Cl` [VARDENAFIL HYDROCHLORIDE]: the IC50 on Phosphodiesterase 1 was 180 nM. Also, in the experiment with Oryctolagus cuniculus, the minimal effective dose is 3 mg/kg.

What is called IC50 is the point on the concentration scale where inhibition reaches its midpoint.
